From publication PMC6934184, “Selective DNA-PKcs inhibition extends the therapeutic index of localized radiotherapy and chemotherapy” (The Journal of Clinical Investigation, 2019)

Molecular target: T1, CSNK2A1 (CK2 alpha 1) (Homo sapiens, UniProt P68400)
T1 construct: purchased Thermo Fisher Scientific (Life Technologies) SelectScreen
Assay: SelectScreen Z'LYTE
Type: biochemical
In short: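 NU5455 was profiled across the SelectScreen Broad panel of kinase activity and binding assays. Z'LYTE reactions such as CSF1R ran at apparent Km ATP, while the Adapta CAMK1 assay used ATP listed as 10. Values are given as percent.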

T1 sequence (P68400 whole entry): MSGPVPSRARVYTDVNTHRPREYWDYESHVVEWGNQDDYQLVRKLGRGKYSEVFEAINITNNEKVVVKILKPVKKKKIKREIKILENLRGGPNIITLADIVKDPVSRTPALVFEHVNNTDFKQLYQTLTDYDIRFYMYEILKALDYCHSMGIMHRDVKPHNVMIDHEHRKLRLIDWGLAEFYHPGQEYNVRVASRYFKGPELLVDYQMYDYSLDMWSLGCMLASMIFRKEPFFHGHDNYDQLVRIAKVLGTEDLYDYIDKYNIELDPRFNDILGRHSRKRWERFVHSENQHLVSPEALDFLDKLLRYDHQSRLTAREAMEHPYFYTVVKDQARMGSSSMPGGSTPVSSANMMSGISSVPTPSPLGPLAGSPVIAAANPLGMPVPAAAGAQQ

In the case of `CN(C(=O)CN1CCOCC1)c1ccc2sc3c(-c4cccc5c(=O)cc(N6CC7CCC(C6)O7)oc45)cccc3c2c1` [NU5455], the inhibition at 1 µM is reported as 7.1%.
